# Source: patent publication US9089539B2 (Indiana University Research and Technology Corporation, priority 2008, dated 2015)
# Bridges are numbered along the chain shown (N, C = ends). Where no end group is shown, it is not given here. Side-chain parts run from the residue outwards. [ ]: non-standard residue; d: D form. The star is where a group is joined. Desaminohistidyl = O=C(CCc1c[nH]cn1)*; PLA = phenyl lactic acid; Aib = CC(C)(N)C(=O)O
# What was measured:
# GLP-1 receptor = molecular target: T1, GLP-1 receptor (Homo sapiens, UniProt P43220); assay: Luciferase-based reporter gene assay for cAMP detection, GLP-1 receptor; assay type: cell-based
# T1 construct: expressed in transfected cells; host or cells: HEK293
# blood glucose [1] = assay: Glucose challenge in DIO mice after intraperitoneal peptide injection (Examples 5-7); assay type: in vivo; details: 2 nmol/kg
# Method: Six groups of diabetes-induced obesity (DIO) mice (eight mice per group) having an initial average body weight of 49.5 g were intraperitoneally injected with 2 nmol/kg of a PBS vehicle control or one of Peptides A-E described below:
# Fifteen minutes after injection with one of the compounds or with vehicle control (at time point 0), a 25% (w/v) glucose saline solution was injected at a dose of 1.5 g per kg of body weight. Blood glucose concentrations of the mice were measured at the time of injection of the compound or vehicle control, at the time of glucose injection, and at 15, 30, 60, and 120 minutes after glucose injection.
# Blood glucose levels of the mice were measured as described in Example 5.
# blood glucose [2] = assay: Glucose challenge in DIO mice after pegylated peptide injection (Example 8); assay type: in vivo; details: 15 or 70 nmol/kg, glucose injected sixty minutes after peptide
# Method: (§1) Nine groups of diabetes-induced obesity (DIO) mice (8 mice per group) having an initial average body weight of 56 g were intraperitoneally injected once and followed for one week with 15 or 70 nmol/kg of Peptides Y, Z, F-Peg, and G-Peg described below or PBS vehicle control.
# Sixty minutes after injection with one of the peptides or with vehicle control (at time point 0), a 25% (w/v) glucose saline solution was injected at a dose of 1.5 g per kg of body weight. Blood glucose concentrations of the mice were measured at the time of injection of the peptide or vehicle control (at time point −60), at the time of glucose injection (at time point 0), and at 15, 30, 60, and 120 minutes after glucose injection.
# [3] = Body weight and food intake of DIO mice over one week (Example 8); assay type: in vivo; details: 15 or 70 nmol/kg; for total food intake: seven days after injection
# Method: as §1
# The body weight of each mouse of each group was measured on 1, 3, 5, and 7 days after injection with the vehicle control or peptide. Total change in body weight was calculated by subtracting the average body weight of a group at the time of injection with vehicle or peptide from the average body weight of the group seven days after injection. Food intake by each group of mice was measured during the course of the week as well. Total food intake was measured seven days after injection with vehicle control or peptide. […] The Ser11 substitution or the des-amino His7 reduces total efficacy.
# [4] = Cleavage of dipeptide-extended prodrugs on incubation in PBS (HPLC/MS); assay type: physicochemical; details: buffer
# Method: Preliminary analyses were performed with these crude peptides to get an approximation of their relative conversion rates in Phosphate Buffered Saline (PBS) buffer (pH, 7.2) using high performance liquid chromatography (HPLC) and MALDI analysis. The crude peptide samples were dissolved in the PBS buffer at a concentration of 1 mg/ml. 1 ml of the resulting solution was stored in a 1.5 ml HPLC vial which was then sealed and incubated at 37° C. Aliquots of 100 μl were drawn out at various time intervals, cooled to room temperature and analyzed by HPLC.
# HPLC analyses were performed on a 150 mm×4.6 mm C18 Vydac column. The flow rate was 1 ml/min. […] A linear gradient was employed (40% to 70% B in 15 minutes).
# Each N-terminally extended peptide was incubated in PBS buffer at 37° C. for approximately a week. Alternatively, each peptide was heated for 120 min at 100° C. to accelerate the amide bond cleavage. Cleavage of the prodrugs was analyzed by reverse phase HPLC and MS.
# To explore the possible formation of 2,5-diketopiperazine (DKP) or 2,5-diketomorpholine (DMP) and the simultaneous generation of HO-F^7,GLP(8-36)-CEX, the prodrug was incubated in PBS buffer at 37° C. for approximately a week. The peptide was also heated at 100° C. to determine the susceptibility to cleavage (Table 4).
# T1 sequence (P43220 24-463, species assumed): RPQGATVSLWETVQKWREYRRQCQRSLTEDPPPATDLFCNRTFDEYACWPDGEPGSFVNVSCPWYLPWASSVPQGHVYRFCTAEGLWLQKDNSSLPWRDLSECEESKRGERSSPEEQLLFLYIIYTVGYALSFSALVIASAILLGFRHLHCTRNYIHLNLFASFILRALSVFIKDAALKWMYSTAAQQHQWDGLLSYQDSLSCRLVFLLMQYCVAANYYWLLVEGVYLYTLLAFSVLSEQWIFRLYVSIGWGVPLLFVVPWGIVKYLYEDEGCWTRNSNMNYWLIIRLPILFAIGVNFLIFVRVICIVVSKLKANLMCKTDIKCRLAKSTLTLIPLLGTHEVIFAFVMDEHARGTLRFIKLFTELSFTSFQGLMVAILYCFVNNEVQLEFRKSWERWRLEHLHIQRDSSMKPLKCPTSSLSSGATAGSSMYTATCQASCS
Substance,blood glucose of prodrug form versus corresponding non-prodrug form (blood glucose [1]),blood glucose concentrations versus vehicle control (blood glucose [2]),total food intake [3],other results
"F^7,GLP(8-37): aa 7-37 of GLP-1 with the His at position 7 replaced with Phe (FAEGTFTSDVSSYLEGQAAKEFIAWLVKGRG; Glucagon-like peptide 1(7-37); UniProt P01275 98-128, looked up, variant H7F)",–,–,–,potency of native GLP-1 (GLP-1 receptor; relative to native GLP): 10%
"Peptide A: prodrug of Peptide B, d-Phe-dPhe attached via the O-terminus; SEQ ID NO: 645 ({dF-dF-PLA}-[Aib]EGTFTSDVSSYLEEQAAKEFIAWLVKGRPSSGAPPPS-NH2; also: dF-PLA joined by ester bond)",higher than the blood glucose levels of mice injected with the corresponding non-prodrug forms of the peptides,–,–,–
"Peptide E: prodrug of Peptide D, d-Phe-d-Val ester on Ser at position 11; SEQ ID NO: 649 (H[Aib]EGS([dV-dF])FTSDVSSYLEEQAAKEFIAWLVKGRPSSGAPPPS-NH2; N-terminus assumed; SMILES CC[C@H](C)[C@H](NC(=O)[C@H](Cc1ccccc1)NC(=O)[C@H](CCC(=O)O)NC(=O)[C@H](CCCCN)NC(=O)[C@H](C)NC(=O)[C@H](C)NC(=O)[C@H](CCC(N)=O)NC(=O)[C@H](CCC(=O)O)NC(=O)[C@H](CCC(=O)O)NC(=O)[C@H](CC(C)C)NC(=O)[C@H](Cc1ccc(O)cc1)NC(=O)[C@H](CO)NC(=O)[C@H](CO)NC(=O)[C@@H](NC(=O)[C@H](CC(=O)O)NC(=O)[C@H](CO)NC(=O)[C@@H](NC(=O)[C@H](Cc1ccccc1)NC(=O)[C@H](COC(=O)[C@H](NC(=O)[C@H](N)Cc1ccccc1)C(C)C)NC(=O)CNC(=O)[C@H](CCC(=O)O)NC(=O)C(C)(C)NC(=O)[C@@H](N)Cc1c[nH]cn1)[C@@H](C)O)C(C)C)C(=O)N[C@@H](C)C(=O)N[C@@H](Cc1c[nH]c2ccccc12)C(=O)N[C@@H](CC(C)C)C(=O)N[C@H](C(=O)N[C@@H](CCCCN)C(=O)NCC(=O)N[C@@H](CCCNC(=N)N)C(=O)N1CCC[C@H]1C(=O)N[C@@H](CO)C(=O)N[C@@H](CO)C(=O)NCC(=O)N[C@@H](C)C(=O)N1CCC[C@H]1C(=O)N1CCC[C@H]1C(=O)N1CCC[C@H]1C(=O)N[C@@H](CO)C(N)=O)C(C)C)",higher than the blood glucose levels of mice injected with the corresponding non-prodrug forms of the peptides,–,–,–
H^7AEGTFTSDVSSYLEGQAAKEFIAWLVKGXPSSGAPPPS-amide [GLP(7-36)-CEX amide],–,–,–,potency relative to native GLP-1 (GLP-1 receptor): approximately ten times more potent in vitro than the native GLP-1 sequence
"Peptide Z: pegylated prodrug, d-Phe-d-Val ester on Ser at position 11; SEQ ID NO: 654 (H[Aib]EGS([dV-dF])FTSDVSSYLEEQAAKEFIC(PEG 40 kDa)WLVKGRPSSGAPPPS-NH2)",–,less as compared to the blood glucose levels of mice injected with vehicle control,decreased,–
2 (FTSEYSKYLDERRAQDFVQWLMNTGPSSGAPPPS; lactam 7-11) [Peptide 2],–,–,–,t1/2 [4]: HO-Phe-dVal (t1/2 = 50.5 hrs)
Peptide Y: GLP-1-based peptide with Cys at 30 linked to a 40 kDa PEG; SEQ ID NO: 653 (H[Aib]EGTFTSDVSSYLEEQAAKEFIC(PEG 40 kDa)WLVKGRPSSGAPPPS-NH2),–,less as compared to the blood glucose levels of mice injected with vehicle control,decreased,potency in decreasing appetite and decreasing body weight ([3]; one week): most potent of the four peptides in decreasing appetite and decreasing body weight
"Peptide G-Peg: pegylated prodrug, d-Phe-d-Val ester on Ser at position 8; SEQ ID NO: 656 ([Desaminohistidyl]S([dV-dF])EGTFTSDVSSYLEEQAAKEFIC(PEG 40 kDa)WLVKGRPSSGAPPPS-NH2)",–,less as compared to the blood glucose levels of mice injected with vehicle control,decreased,total efficacy over a week study [3]: comparable
"Peptide C: prodrug of Peptide B, d-Phe-d-Val attached via the O-terminus; SEQ ID NO: 647 ({dF-dV-PLA}-[Aib]EGTFTSDVSSYLEEQAAKEFIAWLVKGRPSSGAPPPS-NH2; also: dV-PLA joined by ester bond)",higher than the blood glucose levels of mice injected with the corresponding non-prodrug forms of the peptides,–,–,–
HAEGTFTSDVSSYLEGQAAKEFIAWLVKGRGKRNRNNIA (listed as Homo sapiens) [GLP-oxyntomodulin],–,–,–,potency relative to native GLP-1 (GLP-1 receptor): at least as potent as the native GLP-1 peptide
"Peptide G: prodrug of Peptide F, d-Phe-dVal ester on Ser at position 2 of Peptide F; SEQ ID NO: 651 ([Desaminohistidyl]S([dV-dF])EGTFTSDVSSYLEEQAAKEFIAWLVKGRPSSGAPPPS-NH2; SMILES CC[C@H](C)[C@H](NC(=O)[C@H](Cc1ccccc1)NC(=O)[C@H](CCC(=O)O)NC(=O)[C@H](CCCCN)NC(=O)[C@H](C)NC(=O)[C@H](C)NC(=O)[C@H](CCC(N)=O)NC(=O)[C@H](CCC(=O)O)NC(=O)[C@H](CCC(=O)O)NC(=O)[C@H](CC(C)C)NC(=O)[C@H](Cc1ccc(O)cc1)NC(=O)[C@H](CO)NC(=O)[C@H](CO)NC(=O)[C@@H](NC(=O)[C@H](CC(=O)O)NC(=O)[C@H](CO)NC(=O)[C@@H](NC(=O)[C@H](Cc1ccccc1)NC(=O)[C@@H](NC(=O)CNC(=O)[C@H](CCC(=O)O)NC(=O)[C@H](COC(=O)[C@H](NC(=O)[C@H](N)Cc1ccccc1)C(C)C)NC(=O)CCc1c[nH]cn1)[C@@H](C)O)[C@@H](C)O)C(C)C)C(=O)N[C@@H](C)C(=O)N[C@@H](Cc1c[nH]c2ccccc12)C(=O)N[C@@H](CC(C)C)C(=O)N[C@H](C(=O)N[C@@H](CCCCN)C(=O)NCC(=O)N[C@@H](CCCNC(=N)N)C(=O)N1CCC[C@H]1C(=O)N[C@@H](CO)C(=O)N[C@@H](CO)C(=O)NCC(=O)N[C@@H](C)C(=O)N1CCC[C@H]1C(=O)N1CCC[C@H]1C(=O)N1CCC[C@H]1C(=O)N[C@@H](CO)C(N)=O)C(C)C)",higher than the blood glucose levels of mice injected with its corresponding non-prodrug form,–,–,–
Peptide F-Peg: Peptide F sequence with Cys at 30 linked to a 40 kDa PEG; SEQ ID NO: 655 ([Desaminohistidyl]SEGTFTSDVSSYLEEQAAKEFIC(PEG 40 kDa)WLVKGRPSSGAPPPS-NH2),–,less as compared to the blood glucose levels of mice injected with vehicle control,decreased,total efficacy over a week study [3]: comparable
